The values below come from patent publication US7238213B2, “Cell-based assays employing voltage and calcium dyes” (priority 2001, dated 2007).

One series deals with tyramine receptor. The series is described as follows: Tyramine receptor activation, CNG channel assay with membrane potential dye. The series is classed as cell-based. The note with it: HEK293 transient, FIG. 16. The protocol:
In this example, activation of the tyramine receptor was examined using the CNG channel assay and compared with calcium fluorescence assays using Gα16 and Gαqs. Similar amounts of plasmids comprising CNG channel, Gα16 or Gαqs were used for transient expression in HEK293 cells also transiently expressing tyramine receptor. Calcium assays were performed following the protocol provided by Molecular Devices. For each concentration of tyramine, three recordings were made to obtain an average response in cells expressing Gα16, Gαqs and CNG channel respectively.

A short description of series [1]: Solubility in water of dye quenchers. To be noted: for solubility: water, Solubility in Water.
In another series the test system is 20 ligand-receptor pairs. To be noted: quenchers for fluorescent voltage dyes.
The test system of series [2] is stably transformed cells expressing a CNG channel gene. The series can be described thus: CNG channel endpoint assay, 384 well, FLEXstation. Type of series: cell-based. The note with it: 30 μM, 90 minutes after stimulation. The procedure: The CNG channel assay can also be used to perform endpoint assays. Decay of fluorescence responses results from desensitization of CNG channel was effectively removed by chelating extracellular calcium by EGTA and supplementing inhibitors of phosphodiesterase. Stably transformed cells expressing a CNG channel gene were seeded into 384 well plates and grown as described in previous examples. Forskolin was dissolved at a final concentration of 30 μM in Compound Buffer containing EGTA. Fluorescence intensity values of cells incubated with forskolin or with Compound Buffer only were read using FLEXstation (Molecular Devices) at different time points after forskolin stimulation.

Series [3] can be described thus: CNG channel voltage dye assay with quencher dyes, cell line ASC0089 (Cyclase).
Another series concerns the target T1, GCGR (Homo sapiens, UniProt P47871).
T1 construct: expressed in transfected cells
The series is described as follows: CNG channel voltage dye assay with quencher dyes, cell line ASC0089 (GCGR). The series is classed as cell-based. The note with it: for Cell response to glucagon in the presence of the quencher dye: ASC0089, HLB30602 5 μM, 1 h at room temperature, FIG. 19; for Effect of quencher on glucagon potency: compared with other quenchers and MDC dye kit, FIG. 21, 22.

The target in a further series is T2, A2B (Homo sapiens, UniProt P29275).
T2 construct: endogenous in cells
T2 sequence (P29275 1-332): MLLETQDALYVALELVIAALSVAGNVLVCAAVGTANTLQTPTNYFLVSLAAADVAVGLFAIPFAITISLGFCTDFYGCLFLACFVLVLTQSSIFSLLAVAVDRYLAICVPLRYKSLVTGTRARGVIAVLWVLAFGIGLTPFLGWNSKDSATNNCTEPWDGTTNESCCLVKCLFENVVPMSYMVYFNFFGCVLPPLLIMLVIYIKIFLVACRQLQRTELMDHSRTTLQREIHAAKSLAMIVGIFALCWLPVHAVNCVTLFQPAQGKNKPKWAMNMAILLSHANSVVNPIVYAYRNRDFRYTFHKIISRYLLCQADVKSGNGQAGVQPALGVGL
The series is described as follows: CNG channel voltage dye assay with quencher dyes, cell line ASC0097 (A2B). The series is classed as cell-based. To be noted: FIG. 20.

The target of the next series is T3, DP (Homo sapiens, UniProt Q13258).
T3 construct: expressed in transfected cells; host or cells: cell line ASC0093 (CNG sensor line)
T3 sequence (Q13258 1-359): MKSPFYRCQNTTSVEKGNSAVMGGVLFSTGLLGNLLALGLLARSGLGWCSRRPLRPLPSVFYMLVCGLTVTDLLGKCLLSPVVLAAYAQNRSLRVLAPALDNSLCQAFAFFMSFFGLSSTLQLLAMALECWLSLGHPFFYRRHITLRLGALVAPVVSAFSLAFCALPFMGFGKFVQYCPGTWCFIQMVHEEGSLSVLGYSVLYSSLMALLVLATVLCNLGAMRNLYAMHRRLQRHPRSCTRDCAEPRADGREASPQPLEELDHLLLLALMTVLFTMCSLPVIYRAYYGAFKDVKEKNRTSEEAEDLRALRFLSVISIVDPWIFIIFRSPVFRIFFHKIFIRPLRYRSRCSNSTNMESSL
The series can be described thus: CNG channel voltage dye assay with quencher dyes, cell line ASC0093 (DP). Type of series: cell-based.

The next series deals with MC1R (Homo sapiens, UniProt Q01726). The note with it: cell line ASC0179.
MC1R, sequence (Q01726 whole entry, species assumed): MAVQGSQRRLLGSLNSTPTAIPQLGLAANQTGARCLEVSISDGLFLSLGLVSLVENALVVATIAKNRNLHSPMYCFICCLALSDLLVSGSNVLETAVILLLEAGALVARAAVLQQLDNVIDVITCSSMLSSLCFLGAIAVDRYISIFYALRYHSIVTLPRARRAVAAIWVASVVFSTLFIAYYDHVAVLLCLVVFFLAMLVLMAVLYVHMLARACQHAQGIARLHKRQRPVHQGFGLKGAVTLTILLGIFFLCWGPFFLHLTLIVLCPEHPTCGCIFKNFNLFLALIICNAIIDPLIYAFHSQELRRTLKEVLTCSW
A short description of series [4]: CNG channel voltage dye assay with quencher dyes, cell line ASC0097 (EP2). The note with it: NY & H30602.

In brackets after ≈: the same amount, converted by molar mass. Read-outs that look alike come from different tables or passages of the source.

In general, EC50 refers to the concentration at which the effect is half-maximal. A high value points to a less potent agent. In general, solubility refers to how much of the substance goes into solution per volume.

T1 sequence (P47871 26-477, species assumed): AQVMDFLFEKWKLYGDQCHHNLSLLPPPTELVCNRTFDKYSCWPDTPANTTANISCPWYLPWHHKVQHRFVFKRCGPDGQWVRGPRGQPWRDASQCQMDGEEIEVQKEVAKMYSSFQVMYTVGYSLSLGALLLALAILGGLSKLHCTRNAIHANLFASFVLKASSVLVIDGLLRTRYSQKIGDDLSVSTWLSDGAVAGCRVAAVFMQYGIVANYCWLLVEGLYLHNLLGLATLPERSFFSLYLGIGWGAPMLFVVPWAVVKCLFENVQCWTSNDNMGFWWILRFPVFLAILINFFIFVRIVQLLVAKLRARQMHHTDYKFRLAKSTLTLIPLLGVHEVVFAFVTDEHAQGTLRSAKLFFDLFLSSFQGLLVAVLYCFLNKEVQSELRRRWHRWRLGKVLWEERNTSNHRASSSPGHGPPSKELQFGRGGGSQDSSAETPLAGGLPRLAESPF

Consider `NCCc1ccc(O)cc1` [tyramine], for which the tyramine receptor activation result with tyramine receptor is on record as “detectable”.

In the case of `Nc1c(N=Nc2ccc([N+](=O)[O-])cc2)c(S(=O)(=O)[O-])cc2cc(S(=O)(=O)[O-])cc(O)c12.[Na+].[Na+]` [Nitro Red], the “Solubility in Water” value in series [1] stood at 40 mg/mL. The “effect of quencher on responses of peptides and other small organic molecules” value with 20 ligand-receptor pairs is “little effect”.

Turning to `CC1=CC(=C(c2ccc(N)c(C)c2)c2ccc(N)c(C)c2)C=CC1=N.Cl` [New Fuchsin], the “Solubility in Water” value in series [1] was 20 mg/mL.

Turning to `CC(=O)Nc1ccc(S(=O)(=O)[O-])c2cc(S(=O)(=O)[O-])c(N=Nc3ccc(N=Nc4ccc(S(=O)(=O)[O-])cc4)c4ccc(S(=O)(=O)[O-])cc34)c(O)c12.[Na+].[Na+].[Na+].[Na+]` [Brilliant Black BN], the “Solubility in Water” value in [1] is 30 mg/mL.

As to `C=C[C@@]1(C)CC(=O)[C@]2(O)[C@@]3(C)[C@@H](O)CCC(C)(C)[C@@H]3[C@H](O)[C@H](OC(C)=O)[C@@]2(C)O1` [forskolin], in series [2], the “increase of fluorescence intensity versus buffer control” value was 2.8 fold. Further, the fluorescence intensity in series [2] (n=192) is recorded as 5.3±0.5×10^5 RFU. In series [3] (MDC dye), the response was half-maximal at 230 nM (EC50) and the “maximal response Fmax/Fb” value is 5.3. Besides, in series [3] (NY & H30602), the EC50 worked out at 160 nM and the “maximal response Fmax/Fb” value is 5.1.

Turning to Direct Violet 51, in series [1], the “Solubility in Water” value was 20 mg/mL.

Turning to `O=S(=O)([O-])c1cc(O)c(N=Nc2c(O)ccc3ccccc23)c2ccccc12.[Na+]` [Palatine Chrome Black 6BN (Calcon)], in [1], the “Solubility in Water” value was 30 mg/mL.

`CCN(CC)c1ccc(C(=C2C=CC(=[N+](CC)Cc3cccc(S(=O)(=O)[O-])c3)C=C2)c2ccc(N(CC)Cc3cccc(S(=O)(=O)[O-])c3)cc2)cc1.[Na+]` [Acid Violet 17]: the “Solubility in Water” value in series [1] came out at 30 mg/mL. The “Cell response to glucagon in the presence of the quencher dye” value on GCGR is listed as “abolished”.

In the case of `O=S1(=O)OC(c2cc(Br)c(O)c(Br)c2)(c2cc(Br)c(O)c(Br)c2)c2ccccc21` [Bromophenol Blue], the “Solubility in Water” value in [1] worked out at 30 mg/mL (≈ 44.8 mM). The “Interference of quencher with response to glucagon stimulation” value (from here on “Interference of quencher with response”) on GCGR (FIG. 21) was “interfered”. The “Suitability of quencher for assay of adenosine receptor A2B responses to NECA” value (shortened to “Suitability of quencher”) at A2B is recorded as “reduced NECA response without affecting NECA potency”.

Consider `O.O=C1c2ccccc2C(=O)c2c1cc(S(=O)(=O)[O-])c(O)c2O.[Na+]` [Alizarin Red S monohydrate], for which the “Solubility in Water” value in [1] worked out at 20 mg/mL.

As to `O=S1(=O)OC(c2ccc(O)c(Cl)c2)(c2ccc(O)c(Cl)c2)c2ccccc21` [Chlorophenol Red], in [1], the “Solubility in Water” value came to 30 mg/mL (≈ 70.9 mM).

In the case of `Cc1cc(-c2ccc(/N=N/c3c(S(=O)(=O)O)cc4cc(S(=O)(=O)O)cc(N)c4c3O)c(C)c2)ccc1/N=N/c1c(S(=O)(=O)O)cc2cc(S(=O)(=O)O)cc(N)c2c1O` [HLB30702 (Trypan Blue), Trypan Blue], in [1], the “Solubility in Water” value is over 20 mg/mL. The “Interference of quencher with response” value on GCGR (FIG. 21) is given as “interfered”. Besides, the “Suitability of quencher” value at A2B was “suitable”.

`CCCCC[C@H](O)/C=C/[C@H]1C(=O)C[C@H](O)[C@@H]1C/C=C\CCCC(=O)O` [PGD2, Prostaglandin D2]: at DP (MDC dye), the EC50 worked out at 0.018 nM and the “maximal response Fmax/Fb” value was 4.4. Moreover, on DP (NY & H30602), the EC50 was determined as 0.0078 nM and the “maximal response Fmax/Fb” value came out at 4.2.

As for `O=S1(=O)OC(c2cc(Cl)c(O)c(Br)c2)(c2cc(Cl)c(O)c(Br)c2)c2ccccc21` [Bromochlorophenol Blue], the “Solubility in Water” value in [1] was found to be 20 mg/mL (≈ 34.4 mM).

For `CCN(CC)c1ccc2nc3ccc(N)cc3[n+](-c3ccccc3)c2c1.[Cl-]` [Methylene Violet 3Rax], the “Solubility in Water” value in series [1] is 10 mg/mL.

On to Sulfonazo II, for which, in [1], the “Solubility in Water” value amounted to 40 mg/mL.

In [1], `O=c1c(Br)cc2c(-c3ccccc3S(=O)(=O)O)c3cc(Br)c(O)c(O)c3oc-2c1O` [Bromopyrogallol Red] registered a solubility of 5 mg/mL (≈ 8.96 mM).

As for `O=S(=O)([O-])c1cc(O)c2c(/N=N/c3ccc(Nc4ccccc4)c4c(S(=O)(=O)[O-])cccc34)cc(S(=O)(=O)[O-])cc2c1.[Na+].[Na+].[Na+]` [Acid Blue 92], the “Solubility in Water” value in series [1] turned out to be 40 mg/mL.

Take `O=S(=O)([O-])c1cccc(N=Nc2ccc(N=Nc3ccc(Nc4ccccc4)c4c(S(=O)(=O)[O-])cccc34)c3ccccc23)c1.[Na+].[Na+]` [Acid Blue 113]: in series [1], the “Solubility in Water” value was determined as 40 mg/mL.

`Cc1cc(-c2ccc(/N=N/c3c(S(=O)(=O)O)cc4cc(S(=O)(=O)O)cc(N)c4c3O)c(C)c2)ccc1/N=N/c1c(S(=O)(=O)O)cc2cc(S(=O)(=O)O)cc(N)c2c1O` [Trypan Blue (Fluka), Trypan Blue] returned a solubility in [1] of about 10 mg/mL (≈ 11.5 mM). Besides, the “Effect of quencher on maximal responses to glucagon” value at GCGR (FIG. 21) is “did not inhibit maximal responses”. The “Interference of quencher with response” value at GCGR (FIG. 21) is listed as “interfered”. Further, the “Effect of quencher on glucagon potency” value at GCGR (listed as Trypan blue) was “reduced glucagon potency by about one order”; on GCGR (listed as trypan blue), “significantly reduced glucagon potency”. For the same molecule, the “Suitability of quencher” value at A2B is “suitable”.

Turning to α-MSH, the “maximal response Fmax/Fb” value was determined as 5 at MC1R (MDC dye) and 5.1 at MC1R (TB & H30602).

For the molecule DIAZINE BLACK, the “Cell response to glucagon in the presence of the quencher dye” value at GCGR is “abolished”.

As for `CCCCC[C@H](O)/C=C/[C@H]1[C@H](O)CC(=O)[C@@H]1CCCCCCC(=O)O` [PGE1, Prostaglandin E1], in [4], the EC50 worked out at 40 nM and the “maximal response Fmax/Fb” value is listed as 5.3.
